A short description of this series: Stability of the anhydrous moxifloxacin hydrochloride to humidity and drying (XRPD, water content). The series is classed as physicochemical. The text has this:
The water contents of the moxifloxacin hydrochloride and of the excipients can be determined using any one of the analytical methods described in the prior art. For example, one may use of the Karl Fisher titration method as described in the European Pharmacopoeia Chapter 2.5.12 (Ph. Eur. 2.5.12) using the Metrohm 7012 KF Titrino® titrator.
The anhydrous moxifloxacin hydrochloride is exposed for several hours to a relative humidity of approximately 40%, which causes an increase in its water content. At the end of the exposure, the water content of the active ingredient is approximately 4% by weight. […] Such results illustrate the low stability of the anhydrous moxifloxacin hydrochloride in the presence of a humidity level of 40%. The conversion of the anhydrous moxifloxacin hydrochloride into a hydrate form becomes significant for a water content above 2%.

Entries after “also recorded” stand apart in the source; their conditions may differ. Where a name gives a salt, the structure may show the parent alone.

With `COc1c(N2C[C@@H]3CCCN[C@@H]3C2)c(F)cc2c(=O)c(C(=O)O)cn(C3CC3)c12` [anhydrous moxifloxacin hydrochloride, 1-cyclopropyl-6-fluoro-1,4-dihydro-8-methoxy-7-[(4aS,7aS)-octahydro-6H-pyrrolo[3,4-b]pyridin-6-yl]-4-oxo-3-quinolinecarbolic acid], the “water content above which conversion of the anhydrous form into a hydrate form becomes significant” value is recorded as “above 2%”. The “water content after drying of the hydrate form obtained” value (drying for several hours) is given as “less than 1 % by weight”. Besides, under “drying for several hours, FIG. 2 curve 2”, the “polymorphic form by XRPD after drying of the hydrate form” value is “reconvert the hydrate formed into an anhydrous polymorphic form; also recorded: conversion into the starting anhydrous form”. The “water content at the end of the exposure” value (exposed for several hours to a relative humidity of approximately 40%) is recorded as “approximately 4 % by weight”. For the setting “several hours at relative humidity of approximately 40%, FIG. 2 curve 3”, the “polymorphic form by XRPD after humidity exposure” value is recorded as “has a tendency to convert into hydrate; also recorded: converted into a hydrate polymorphic form”.

Source of the values: patent US20150190388A1, “PHARMACEUTICAL COMPOSITION OF MOXIFLOXACIN HYDROCHLORIDE AND PREPARATION METHOD” (RIVOPHARM SA, priority 2012, published 2015).
